Assay results from patent US9023483B2, “Wood preservative compositions useful for treating copper-tolerant fungi” (Arch Timber Protection Limited, priority 2010, dated 2015).

System: Serpula himantioides strain ATCC 64894
Experiment: EN 113 wood block decay test, Serpula himantioides, 16 weeks
Type: cell-based
From the text: Five replicates were made per each treatment.
As shown in the above tables, the copper composition contains about 9% by weight copper, while both of the azole compositions contain about 10% by weight azole. The DQA cation was applied to the wood as a solution of 50 weight percent didecyldimethyl ammonium carbonate (DDACarbonate).
The wood samples were exposed for 16 weeks.

## didecyldimethyl ammonium carbonate [DDACarbonate]
Cu retention 0, DDACarbonate retention 0.25 Kg/m^3, 16 weeks
  16 weeks of exposure Average weight loss % of untreated weight loss: 84%
Cu retention 0, DDACarbonate retention 0.5 Kg/m^3, 16 weeks
  16 weeks of exposure Average weight loss % of untreated weight loss: 67%
Summary of the decay tests, 16 weeks
  protection of wood against decay by Serpula himantioides (in words): relatively little protection
